Data on twelve compounds can be found in PubChem BioAssay (NCI).

Some test systems named below: NCI/ADR-RES ovarian; BT-549 breast; SF-539 CNS; RXF 393 renal; MOLT-4 leukemia; NCI-H522 lung; SR leukemia; 786-0 renal.
Experiment in all cases: NCI anticancer screen, dose series, 48 h

Each structure is given as a SMILES string.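 Method: 48-hour compound exposure of cells in 96-well plates, five concentrations, linear interpolation of endpoints. GI50 = concentration required for 50% inhibition of growth. TGI is the concentration that stops growth completely.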

With `CC(=O)c1cccc(NC(=O)C(=O)c2c(O)c3ccccc3oc2=O)c1`, the TGI in the assay on NCI/ADR-RES ovarian, in the assay with BT-549 breast, in the assay on SF-539 CNS, with RXF 393 renal, in the assay on MOLT-4 leukemia and with NCI-H522 lung was over 100 µM throughout. The TGI with SR leukemia and with 786-0 renal was over 100 µM throughout.
For `C=CC(C)(C)n1cc(C2=C(O)C(=O)C(c3cn(C(C)(C)C=C)c4ccccc34)=C(O)C2=O)c2ccccc21`, the TGI in the assay with NCI/ADR-RES ovarian is 6.72 µM; in the assay with BT-549 breast, 3.63 µM; in the assay on SF-539 CNS, 4.11 µM; in the assay with RXF 393 renal, 3.87 µM; in the assay on MOLT-4 leukemia, over 45.8 µM; with NCI-H522 lung, 13 µM. In addition, the TGI in the assay on SR leukemia is over 45 µM; in the assay on 786-0 renal it was over 34.8 µM.
For the compound `O=C(NN1C(=O)CSC1c1cccc(Cl)c1)C(O)c1ccccc1` (centres undefined), the GI50 in the assay with BT-549 breast was over 100 µM; in the assay on SF-539 CNS it was over 100 µM; in the assay with RXF 393 renal, 59.3 µM; in the assay with MOLT-4 leukemia it was 77.8 µM; with NCI-H522 lung, 67.9 µM; in the assay on 786-0 renal it was over 100 µM. In addition, the TGI in the assay with BT-549 breast, in the assay on SF-539 CNS, in the assay on RXF 393 renal, in the assay on MOLT-4 leukemia, in the assay with NCI-H522 lung and in the assay on 786-0 renal was over 100 µM throughout.
For `CCSc1ccc([C@@H]2[C@@H](O)C(=O)N2c2cc(OC)c(OC)c(OC)c2)cc1`, the GI50 with NCI/ADR-RES ovarian is 0.0157 µM; with BT-549 breast, 0.0264 µM; in the assay with RXF 393 renal it was under 0.01 µM; in the assay with MOLT-4 leukemia, 0.0384 µM; in the assay with NCI-H522 lung it was under 0.01 µM; in the assay with SR leukemia, under 0.01 µM. Further, in the assay with 786-0 renal, the GI50 was under 0.016 µM. Further, the TGI in the assay on NCI/ADR-RES ovarian is 23.9 µM; in the assay on BT-549 breast, 0.503 µM; in the assay on RXF 393 renal it was 52.3 µM; with MOLT-4 leukemia, 17.7 µM; in the assay on NCI-H522 lung it was under 0.0119 µM; in the assay with SR leukemia it was 17.4 µM. In the assay with 786-0 renal, this compound showed a TGI of 29 µM.
As to `O=C1/C(=C\c2ccco2)Oc2ccccc21`, the TGI in the assay on NCI/ADR-RES ovarian, with BT-549 breast, in the assay with RXF 393 renal, with MOLT-4 leukemia, in the assay with NCI-H522 lung and with SR leukemia was over 100 µM throughout. The compound further gave a TGI with 786-0 renal of over 100 µM.
Regarding `CO[C@H]1/C=C/O[C@@]2(C)Oc3c(C)c(O)c4c(O)c(c(/C=N/N5CCN(C)CC5)c(O)c4c3C2=O)NC(=O)/C(C)=C\C=C\[C@H](C)[C@H](O)[C@@H](C)[C@@H](O)[C@@H](C)[C@H](OC(C)=O)[C@@H]1C`, the TGI in the assay on NCI/ADR-RES ovarian is over 100 µM; in the assay on BT-549 breast, over 100 µM; with RXF 393 renal, over 100 µM; in the assay with MOLT-4 leukemia it was over 100 µM; with SR leukemia, 52.6 µM; with 786-0 renal, over 100 µM.
In the case of `O=[N+]([O-])c1cc([As](Br)c2ccc(O)c([N+](=O)[O-])c2)ccc1O`, the TGI in the assay on NCI/ADR-RES ovarian came to 8.81 µM; in the assay with BT-549 breast, 3.84 µM; in the assay on SF-539 CNS, 3.93 µM; in the assay on RXF 393 renal it was 3.22 µM; with NCI-H522 lung it was 0.45 µM; in the assay with SR leukemia, 0.566 µM. The TGI with 786-0 renal was 4.36 µM.
As to `COc1cc(OC)c2sc(-c3ccc(-n4cncc4-c4ccc(OC)c(OC)c4)cc3)nc2c1`, the GI50 in the assay on NCI/ADR-RES ovarian is over 100 µM; with BT-549 breast, 9.12 µM; in the assay on SF-539 CNS, over 100 µM; in the assay with RXF 393 renal it was 3.55 µM; in the assay on NCI-H522 lung, 5.27 µM; in the assay on SR leukemia, 3.03 µM. The GI50 in the assay on 786-0 renal is over 100 µM. For the same compound, the TGI with NCI/ADR-RES ovarian is over 100 µM; in the assay with BT-549 breast it was over 100 µM; in the assay on SF-539 CNS it was over 100 µM; with RXF 393 renal, over 100 µM; with NCI-H522 lung it was 76.9 µM; in the assay with SR leukemia it was over 100 µM. In the assay on 786-0 renal, the TGI is over 100 µM.
Regarding `COc1ccc(C(=O)c2sc3nc(-c4ccccc4OC)ccc3c2N)cc1OC`, the GI50 is 5.05 µM in the assay with NCI/ADR-RES ovarian; 3.14 µM in the assay with BT-549 breast; 20 µM in the assay on SF-539 CNS; 3.42 µM in the assay with RXF 393 renal; 2.5 µM with NCI-H522 lung; 7.3 µM in the assay on SR leukemia. Besides, the GI50 in the assay on 786-0 renal was 11.7 µM. The TGI with NCI/ADR-RES ovarian was over 100 µM; with BT-549 breast, 17 µM; in the assay with SF-539 CNS it was over 100 µM; in the assay on RXF 393 renal, 70 µM; in the assay on NCI-H522 lung, 8.89 µM; with SR leukemia, over 100 µM. This compound also showed a TGI in the assay on 786-0 renal of over 100 µM.
Turning to `C=C1C(=O)OC2C1CCC(C)C1(O)C=CC(=O)C21C` (centres undefined), the TGI in the assay on NCI/ADR-RES ovarian, with SF-539 CNS, in the assay on RXF 393 renal, with MOLT-4 leukemia, in the assay on SR leukemia and in the assay on 786-0 renal was over 10 µM throughout.
Turning to `O=C(c1ccc2ccccc2c1)c1nc2cc(F)ccc2[n+]([O-])c1C(F)(F)F`, the GI50 in the assay with NCI/ADR-RES ovarian is 21.2 µM; in the assay with BT-549 breast it was 17.5 µM; with SF-539 CNS it was 22 µM; in the assay with RXF 393 renal, 14.6 µM; with MOLT-4 leukemia, 22.9 µM; in the assay with NCI-H522 lung, 13.6 µM. Also, the GI50 in the assay on 786-0 renal was 31.6 µM. The TGI in the assay on NCI/ADR-RES ovarian came to 42.8 µM; with BT-549 breast, 33 µM; with SF-539 CNS, 48.9 µM; in the assay with RXF 393 renal, 30.8 µM; in the assay with MOLT-4 leukemia it was 53.8 µM; with NCI-H522 lung it was 29.8 µM. For the same compound, in the assay with 786-0 renal, the TGI is over 100 µM.
As to `CCCN(CCC)c1ccc(C=O)c(Cl)c1`, the GI50 is 29 µM in the assay on NCI/ADR-RES ovarian; 24 µM in the assay with BT-549 breast; 23.8 µM with SF-539 CNS; 14.2 µM in the assay on RXF 393 renal; 29.6 µM with MOLT-4 leukemia; 25.2 µM with NCI-H522 lung. Further, in the assay with 786-0 renal, the GI50 is 20 µM. The TGI with NCI/ADR-RES ovarian was over 100 µM; with BT-549 breast it was over 80.4 µM; with SF-539 CNS it was over 65 µM; with RXF 393 renal it was 33.6 µM; in the assay with MOLT-4 leukemia, 97.1 µM; in the assay on NCI-H522 lung, 82.2 µM. The compound further returned a TGI in the assay on 786-0 renal of 53 µM.
